Here are results for 1 compound from ChEMBL document CHEMBL5321238, “Small-molecule theranostics in Alzheimer's disease” (Eur J Med Chem, 2023).

This test addresses Amyloid-beta precursor protein (Homo sapiens) (UniProt P05067). In words: Binding affinity to amyloid beta (1 to 40 residues) (unknown origin) aggregation assessed as fold increase in fluorescence intensity.

Structures are written as SMILES.

Chain of Amyloid-beta precursor protein (Homo sapiens) (P05067 whole entry, the tested form may be a part): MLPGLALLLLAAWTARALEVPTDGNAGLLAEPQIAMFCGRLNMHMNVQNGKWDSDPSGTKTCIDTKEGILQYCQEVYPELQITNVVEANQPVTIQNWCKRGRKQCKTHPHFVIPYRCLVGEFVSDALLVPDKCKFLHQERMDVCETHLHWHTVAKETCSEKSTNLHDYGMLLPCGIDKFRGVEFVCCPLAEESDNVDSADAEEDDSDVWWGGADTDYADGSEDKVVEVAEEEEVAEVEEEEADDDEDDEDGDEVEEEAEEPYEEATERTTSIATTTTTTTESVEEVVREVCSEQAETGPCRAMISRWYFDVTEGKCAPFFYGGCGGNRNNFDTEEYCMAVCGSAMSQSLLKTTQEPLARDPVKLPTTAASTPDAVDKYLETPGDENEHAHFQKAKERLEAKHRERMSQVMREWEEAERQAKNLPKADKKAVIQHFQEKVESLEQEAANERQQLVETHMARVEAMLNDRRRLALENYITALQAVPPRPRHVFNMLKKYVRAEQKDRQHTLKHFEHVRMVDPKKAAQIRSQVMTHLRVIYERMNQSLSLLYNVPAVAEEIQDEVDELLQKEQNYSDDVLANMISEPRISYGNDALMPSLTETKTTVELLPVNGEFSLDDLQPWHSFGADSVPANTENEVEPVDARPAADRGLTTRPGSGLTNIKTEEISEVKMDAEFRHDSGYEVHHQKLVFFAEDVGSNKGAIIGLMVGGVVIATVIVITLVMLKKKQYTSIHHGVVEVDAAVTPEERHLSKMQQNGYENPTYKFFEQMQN

`CN(C)c1ccc(/C=C/C2=CC(/C=C/c3ccc(N(C)C)cc3)=[O+][B-](F)(F)O2)cc1`: the fold change (FC) is 70.
